Assay results: patent publication US20240116985A1, “STAPLED PEPTIDES AND METHODS THEREOF” (priority 2020, published 2024)
Values joined by “and” are separate entries in the source; they are usually repeats but may differ in a detail not shown here. Identical values can stand only once. Like-named read-outs stand apart in the source and are kept apart here.

What was measured:
[1] = test system: TCF/LEF luciferase Reporter in DLD1 cells; test: TCF reporter assay (DLD1 TCF/LEF luciferase reporter, Bright-Glo); assay type: cell-based; conditions: for DLD1 TCF c2 BrightGlo % Inhibition: replicates
Procedure, shortened: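 Readouts: Bright-Glo luciferase for reporter signal and CellTiter-Glo for cell viability, with absolute IC50 derived. The reporter clone came from lentiviral TCF/LEF-luciferase transduction of DLD1 cells, seeded 5000 cells/well in RPMI with 4% FBS and exposed overnight to serially diluted compounds.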

[2] = molecular target: T1, beta-catenin/TCF4 engagement (Homo sapiens, UniProt P35222); test: Nano-BRET target engagement assay (B-cat-Halo & TCF4-Luc in HEK293 cells); assay type: cell-based
T1 construct: expressed in transfected cells; host or cells: HEK293
T1 sequence (P35222 1-781): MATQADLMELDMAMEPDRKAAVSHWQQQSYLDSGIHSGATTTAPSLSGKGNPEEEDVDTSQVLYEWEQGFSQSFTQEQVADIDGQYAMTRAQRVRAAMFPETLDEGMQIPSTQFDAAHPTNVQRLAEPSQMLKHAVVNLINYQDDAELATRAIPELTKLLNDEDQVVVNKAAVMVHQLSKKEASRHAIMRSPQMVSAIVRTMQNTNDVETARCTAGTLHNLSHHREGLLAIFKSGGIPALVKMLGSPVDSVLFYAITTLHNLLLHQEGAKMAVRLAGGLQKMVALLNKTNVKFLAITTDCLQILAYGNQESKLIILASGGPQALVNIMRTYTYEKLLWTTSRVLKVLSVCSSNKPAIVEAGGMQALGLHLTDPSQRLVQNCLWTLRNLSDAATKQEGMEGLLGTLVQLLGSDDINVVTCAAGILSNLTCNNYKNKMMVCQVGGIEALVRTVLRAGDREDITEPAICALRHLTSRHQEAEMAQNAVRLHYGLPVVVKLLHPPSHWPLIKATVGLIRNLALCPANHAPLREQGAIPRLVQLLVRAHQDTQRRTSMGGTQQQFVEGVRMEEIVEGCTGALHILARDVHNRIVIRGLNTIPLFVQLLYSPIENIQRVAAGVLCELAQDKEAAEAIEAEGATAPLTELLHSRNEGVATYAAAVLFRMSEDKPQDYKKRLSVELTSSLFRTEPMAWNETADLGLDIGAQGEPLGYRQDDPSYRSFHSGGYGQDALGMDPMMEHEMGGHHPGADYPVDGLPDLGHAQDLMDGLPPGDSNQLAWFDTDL

[3] = molecular target: T2, full-length beta-Catenin (Uniprot ID P35222) (Homo sapiens, UniProt P35222); test: Fluorescence polarization IC50 (beta-catenin / 5FAM-TCF4 10-53 competition); assay type: binding
T2 construct: 10 nM full-length beta-Catenin (Uniprot ID P35222)
T2 sequence (P35222 1-781): T1 sequence (P35222 1-781)

[4] = CHI Log D procedure; assay type: physicochemical; conditions: for CHI Log D / logD: pH 7.4; for chromatographic logD: pH 7.4, CHI Log D
[5] = Abs IC50, read-out: DLD1 reporter assay Abs IC50
[6] = first dose = 20 uM (plate map), 20 µM
[7] = read-out: DLD1 4% Abs IC50, DLD1 4%
[8] = third dose = 5 uM (plate map), 5 µM
[9] = absolute IC50, read-out: DLD1 reporter assay Abs IC50
[10] = absolute IC50, read-out: NanoBRET Abs IC50
[11] = fluorescence polarization, beta-catenin, read-out: FP EC50
[12] = Peptide + ST-Protein (SAINT-Protein lipid)

SMILES	IC50 ([3]; read-out: beta-Catenin FP IC50) [µM]	CHI Log D [4]	IC50 [1, 9] [µM]	IC50 [2, 10] [µM]	chromatographic logD [4]	DLD1 TCF c2 BrightGlo % Inhibition [1, 6]	DLD1 TCF c2 BrightGlo % Inhibition ([1]; 0.625 µM)	DLD1 TCF c2 BrightGlo % Inhibition ([1]; 1.25 µM)	DLD1 TCF c2 BrightGlo % Inhibition ([1]; 2.5 µM)	DLD1 TCF c2 BrightGlo % Inhibition ([1]; 10 µM)	DLD1 TCF c2 BrightGlo % Inhibition [1, 8]	also measured
CC(=O)N1CCC[C@]12CC=CCCCC1(CCCC=CCCCOC(=O)N3CC[C@@](C(=O)N[C@@H](CC(=O)O)C(=O)N[C@@H](Cc4csc5ccccc45)C(=O)N[C@@H](CCC(N)=O)C(N)=O)(C3)NC(=O)[C@H](CC(N)=O)NC(=O)[C@H](Cc3ccccc3)NC(=O)[C@H](C)NC(=O)[C@H](C)NC(=O)[C@H](CN(CC(=O)O)CC(F)(F)F)NC(=O)[C@H](Cc3ccsc3)NC1=O)NC(=O)[C@H](CC(C)(C)C)NC(=O)[C@H](CC(=O)O)NC2=O (stereo partly drawn) [I-1001, Ac-PL3-Asp-Npg-B5-3Thi-TfeGA-Ala-Ala-Phe-Asn-PyrS2-Asp-BztA-Gln-NH2]	7.22	–	> 20	> 20	1.89	−1.2% and 7.5% and 3.5%	−1.5% and 9.3% and 4.5%	−7.0% and −2.8% and 6.1%	−8.0% and −7.6% and −5.0%	−3.6% and −4.8% and −7.4%	−6.7% (2×) and −0.7%	TCF Reporter Assay Abs IC50 (uM) [1, 12]: inactive; TCF Reporter Assay Abs IC50 (uM) ([1]; Peptide only): inactive; Nano-BRET Abs IC50 (uM) [2, 12]: inactive; Nano-BRET Abs IC50 (uM) ([2]; Peptide only): inactive; IC50 [3, 11]: 5.53 µM
CC(=O)N1CCC[C@]12CC=CCCCC1(CCCC=CCCCOC(=O)N3CC[C@@](C(=O)N[C@@H](Cc4ccsc4)C(=O)N[C@@H](Cc4csc5ccccc45)C(=O)N[C@@H](CCC(N)=O)C(N)=O)(C3)NC(=O)[C@H](CC(N)=O)NC(=O)[C@H](Cc3ccccc3)NC(=O)[C@H](C)NC(=O)[C@H](C)NC(=O)[C@H](CC(=O)O)NC(=O)[C@H](CC(=O)O)NC1=O)NC(=O)[C@H](CC(C)(C)C)NC(=O)[C@H](CC(=O)O)NC2=O (stereo partly drawn) [I-686, Ac-PL3-Asp-Npg-B5-Asp-Asp-Ala-Ala-Phe-Asn-PyrS2-3Thi-BztA-Gln-NH2]	–	1.997	–	–	–	–	–	–	–	–	–	IC50 [1, 5]: 5.6 µM; logD [4]: 2.0
CC(=O)N1CCC[C@]12CC=CCCCC1(CCCC=CCCCCCC[C@@](C)(C(=O)N[C@@H](Cc3ccccc3Cl)C(=O)N[C@@H](Cc3csc4ccccc34)C(=O)N[C@@H](CCC(N)=O)C(N)=O)NC(=O)[C@H](CC(C)C)NC(=O)[C@H](Cc3ccccc3)NC(=O)[C@H](C)NC(=O)[C@H](C)NC(=O)[C@H](CC(=O)O)NC(=O)[C@H](CC(=O)O)NC1=O)NC(=O)[C@H](CC(C)(C)C)NC(=O)[C@H](CC(=O)O)NC2=O (stereo partly drawn) [I-1095, Ac-PL3-Asp-Npg-B5-Asp-Asp-Ala-Ala-Phe-Leu-S8-2C1F-BztA-Gln-NH2]	0.015	–	> 20	> 20	3.09	–	–	–	–	–	–	–
CC(=O)N1CCC[C@]12CC=CCCCC1(CCCC=CCCCOC(=O)N3CC[C@@](C(=O)N[C@@H](Cc4ccsc4)C(=O)N[C@@H](Cc4csc5ccccc45)C(=O)N[C@@H](C)C(N)=O)(C3)NC(=O)[C@H](CC(C)C)NC(=O)[C@H](Cc3ccccc3)NC(=O)[C@H](C)NC(=O)[C@H](C)NC(=O)[C@H](CN(CC(=O)O)CC(F)(F)F)NC(=O)[C@H](CC(=O)O)NC1=O)NC(=O)[C@H](CC(C)(C)C)NC(=O)[C@H](CC(=O)O)NC2=O (stereo partly drawn) [I-1710, Ac-PL3-Asp-Npg-B5-Asp-TfeGA-Ala-Ala-Phe-Leu-PyrS2-3Thi-BztA-Ala-NH2]	–	–	–	3.9	–	–	–	–	–	–	–	IC50 ([1]; read-out: DLD1 4% Abs IC50, DLD1 reporter assay, 4%, absolute IC50): 1.9 µM; IC50 ([3]; fluorescence polarization, read-out: beta-Catenin FP IC50): 0.022 µM

More lines, main results first:

IC50 ([3]; read-out: beta-Catenin FP IC50) [µM]	CHI Log D [4]	IC50 [1, 9] [µM]	IC50 [2, 10] [µM]	chromatographic logD [4]	SMILES	DLD1 TCF c2 BrightGlo % Inhibition [1, 6]	DLD1 TCF c2 BrightGlo % Inhibition ([1]; 0.625 µM)	DLD1 TCF c2 BrightGlo % Inhibition ([1]; 1.25 µM)	DLD1 TCF c2 BrightGlo % Inhibition ([1]; 2.5 µM)	DLD1 TCF c2 BrightGlo % Inhibition ([1]; 10 µM)	DLD1 TCF c2 BrightGlo % Inhibition [1, 8]	also measured
0.005	2.247	–	–	–	CC(=O)N1CCC[C@]12CC=CCCCC1(CCCC=CCCCOC(=O)N3CC[C@@](C(=O)N[C@@H](Cc4ccsc4)C(=O)N[C@@H](Cc4csc5ccccc45)C(=O)N[C@@H](CCC(N)=O)C(N)=O)(C3)NC(=O)[C@H](CC(N)=O)NC(=O)[C@H](Cc3ccccc3)NC(=O)[C@H](C)NC(=O)[C@H](C)NC(=O)[C@H](CN(CC(=O)O)CC(F)(F)F)NC(=O)[C@H](CC(=O)O)NC1=O)NC(=O)[C@H](CC(C)(C)C)NC(=O)[C@H](CC(=O)O)NC2=O (single isomer, unassigned) [I-762, Ac-PL3-Asp-Npg-B5-Asp-TfeGA-Ala-Ala-Phe-Asn-PyrS2-3Thi-BztA-Gln-NH2]	75.7% and 81.9% and 78.7%	14.5% and 18.6% and 9.3%	12.9% and 16.9% and 5.5%	12.9% and 17.4% and 11.9%	56.8% and 70.2% and 65.6%	28.2% and 45.2% and 44.6%	IC50 [1, 5]: 6 µM; IC50 ([1]; Peptide + ST-Protein (SAINT-Protein lipid), read-out: TCF Reporter Assay Abs IC50): 0.3 µM; IC50 ([1]; Peptide only, read-out: TCF Reporter Assay Abs IC50): 7 µM; IC50 [1, 7]: 7.9 µM; IC50 ([2]; Abs IC50, read-out: NanoBRET Abs IC50): 10 µM; IC50 ([2]; Peptide + ST-Protein (SAINT-Protein lipid), read-out: Nano-BRET Abs IC50): 0.7 µM; IC50 ([2]; Peptide only, read-out: Nano-BRET Abs IC50): 11 µM; IC50 ([2]; read-out: NanoBRET Abs IC50): 14 µM; IC50 ([3]; read-out: FP EC50): 0.006 µM; IC50 ([3]; read-out: bCat FP IC50): 0.006 µM; logD [4]: 2.2
0.011	2.313	4.2	8.2	–	CC(=O)N1CCC[C@]12CC=CCCCC1(CCCC=CCCCOC(=O)N3CC[C@@](C(=O)N[C@@H](Cc4ccccc4C(F)(F)F)C(=O)N[C@@H](Cc4csc5ccccc45)C(=O)N[C@@H](CCC(N)=O)C(N)=O)(C3)NC(=O)[C@H](CC(N)=O)NC(=O)[C@H](Cc3ccccc3)NC(=O)[C@H](C)NC(=O)[C@H](C)NC(=O)[C@H](CN(CC(=O)O)CC(F)(F)F)NC(=O)[C@H](CC(=O)O)NC1=O)NC(=O)[C@H](CC(C)(C)C)NC(=O)[C@H](CC(=O)O)NC2=O (stereo partly drawn) [I-927, Ac-PL3-Asp-Npg-B5-Asp-TfeGA-Ala-Ala-Phe-Asn-PyrS2-2F3MeF-BztA-Gln-NH2]	77.1% and 77.4% and 80.3%	3.5% and 8.0% and 14.3%	8.7% and 15.1% and 18.6%	23.9% and 33.7% and 42.0%	68.0% and 70.2% and 72.9%	53.1% and 55.2% and 60.1%	IC50 ([2]; read-out: NanoBRET Abs IC50): 8.2 µM; IC50 [3, 11]: 0.011 µM
0.007	–	–	2.8	2.4	CC(=O)N1CCC[C@]12CC=CCCCC1(CCCC=CCCCOC(=O)N3CC[C@@](C(=O)N[C@@H](Cc4ccsc4)C(=O)N[C@@H](Cc4csc5ccccc45)C(=O)N[C@@H](CCC(N)=O)C(N)=O)(C3)NC(=O)[C@H](Cc3ccccc3)NC(=O)[C@H](Cc3ccccc3)NC(=O)[C@H](C)NC(=O)[C@H](C)NC(=O)[C@H](Cc3cccc(C(=O)O)c3)NC(=O)[C@H](CC(=O)O)NC1=O)NC(=O)[C@H](CC(C)(C)C)NC(=O)[C@H](CC(=O)O)NC2=O (stereo partly drawn) [I-852, Ac-PL3-Asp-Npg-B5-Asp-3COOHF-Ala-Ala-Phe-Phe-PyrS2-3Thi-BztA-Gln-NH2]	–	–	–	–	–	–	IC50 [1, 7]: 1.4 µM
0.009	–	> 20	29.8	2.6	CC(=O)N1CCC[C@]12CC=CCCCC1(CCCC=CCCCOC(=O)N3CC[C@@](C(=O)N[C@@H](Cc4ccccc4Cl)C(=O)N[C@@H](Cc4csc5ccccc45)C(=O)N[C@@H](CCC(N)=O)C(N)=O)(C3)NC(=O)[C@H](CC(N)=O)NC(=O)[C@H](Cc3ccccc3)NC(=O)[C@H](CC(C)C)NC(=O)[C@H](C)NC(=O)[C@H](CN(CC(=O)O)CC(F)(F)F)NC(=O)[C@H](CC(=O)O)NC1=O)NC(=O)[C@H](CC(C)(C)C)NC(=O)[C@H](CC(=O)O)NC2=O (stereo partly drawn) [I-1002, Ac-PL3-Asp-Npg-B5-Asp-TfeGA-Ala-Leu-Phe-Asn-PyrS2-2C1F-BztA-Gln-NH2]	–	–	–	–	–	–	–
0.007	–	4.5	3.3	2.28	CC(=O)N1CCC[C@]12CC=CCCCC1(CCCC=CCCCOC(=O)N3CC[C@@](C(=O)N[C@@H](Cc4ccccc4Br)C(=O)N[C@@H](Cc4csc5ccccc45)C(=O)N[C@@H](CCC(N)=O)C(N)=O)(C3)NC(=O)[C@H](CC(N)=O)NC(=O)[C@H](Cc3ccccc3)NC(=O)[C@H](C)NC(=O)[C@H](C)NC(=O)[C@H](CN(CC(=O)O)CC(F)(F)F)NC(=O)[C@H](CC(=O)O)NC1=O)NC(=O)[C@H](CC(C)(C)C)NC(=O)[C@H](CC(=O)O)NC2=O (stereo partly drawn) [I-924, Ac-PL3-Asp-Npg-B5-Asp-TfeGA-Ala-Ala-Phe-Asn-PyrS2-2BrF-BztA-Gln-NH2]	–	–	–	–	–	–	–
